Reference: patent US20230165884A1, “METHOD AND COMPOSITION FOR TREATING ALZHEIMERS” (Cognitive Synergy Corporation, priority 2021, published 2023)

Assays:
Aβ1-42 protein = target: T1, Aβ1-42 protein (Homo sapiens, UniProt P05067); test: Percentage of Aβ1-42 protein fibrillization by ThT fluorescence (FIG. 18, 19); assay type: biochemical; parameters: percentage of Aβ fibrillization compared to the control: unit of the concentration uncertain; conditions: for effect on Aβ protein aggregation and/or tau protein accumulation: incubated with Aβ1-42 for 24 hours at 37° C.
T1 construct: aggregated amyloid beta 1-42 (Aβ1-42)
T1 sequence (P05067 672-713): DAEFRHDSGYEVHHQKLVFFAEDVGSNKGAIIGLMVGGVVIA
Experimental: FIG. 18 is an analysis showing a percentage of Aβ1-42 protein fibrillization using thioflavin T (ThT) florescence in various samples. The sample on the left is a control of Aβ1-42 protein. […] The third sample from the left is Aβ protein treated with 10 mM Aconitine. And the fourth sample from the left is Aβ1-42 protein treated with 20 mM Aconitine.
FIG. 19 is an analysis showing an amount of Aβ1-42 protein fibrillization using thioflavin T (ThT) fluorescence in various samples. The sample on the left is a control of Aβ1-42 protein. The second sample from the left is Aβ1-42 protein treated with 200 mM of bergenin. The third sample from the left is Aβ1-42 protein treated with 300 mM bergenin.
The various compounds were incubated with Aβ1-42 for 24 hours at 37° C. to determine the effect of compounds on defibrillation. Further, testing was done to determine an effect of the compounds on tau protein.
Referring to FIG. 18, FIG. 18 is a bar graph 1800 showing a percentage of Aβ protein fibrillization in various samples. The sample on the left is a control 1805 of Aβ protein. […] The third sample 1815 from the left is Aβ protein treated with 10 mM aconitine. And the fourth sample 1820 from the left is Aβ protein treated with 20 mM aconitine.
The intensity for the control 1805 is normalized to 100.
The third sample 1815 includes a concentration of 10 mM aconitine. […] The fourth sample 1820 includes a concentration of 20 mM aconitine.
Referring to FIG. 19, FIG. 19 is a bar graph 1900 showing an amount of Aβ protein in various samples. The sample on the left is a control 1905 of Aβ protein. The second sample 1910 from the left is Aβ protein treated with 200 mM bergenin. The third sample 1915 from the left is Aβ protein treated with 300 mM bergenin.
The control 1905 on the left side of the bar graph 1900, which just contains Aβ protein is normalized to 100. The measurement of the percentage of the Aβ protein in the control 1905 that aggregates into Aβ fibrils is compared against solutions containing bergenin.
The second sample 1910 contains 200 mM bergenin. […] The third sample 1915 contained 300 mM bergenin.

[1] = tested on: neurons with Aβ treatment; test: Cell survival assay of various compositions (FIG. 29); assay type: cell-based; conditions: Aβ control 61.7592%
Experimental: (§1) Orientin, vitexin, and bergenin were detected as possible targets based on identification via Liquid Chromatography—mass Spectrometry (LC-MS) from Synaptecx-227 and verified via mass spectrometric (MS) analysis. Aβ1-42 defibrillation analysis and Aβ1-42 cell survival were performed for various combinations of the above identified targets.
In the control sample with Aβ treatment, the % of surviving neurons is 61.7592% (p value<0.0001 ****).

Aβ = target: T2, Aβ (Homo sapiens, UniProt P05067); test: Fibrillization assay of various compositions (FIG. 28); assay type: biochemical; conditions: control 100% fibrillization
T2 construct: aggregated amyloid beta 1-42 (Aβ1-42)
T2 sequence (P05067 672-713): as above
Experimental: as §1
The sample treated with a 20 micromolar concentration of orientin, 20 micromolar concentration of vitexin, and 50 micromolar concentration of bergenin decreased Aβ fibrillization by 48.9989% (p value<0.0001 ****).

Compound	effect on Aβ protein aggregation and/or tau protein accumulation (Aβ1-42 protein)	decrease of Aβ fibrillization (Aβ; 20 micromolar) [%]	cell survival ([1]; 20 micromolar) [%]	further results
CCN1C[C@]2(COC)[C@H](O)C[C@H](OC)[C@@]34[C@@H]5C[C@@]6(O)[C@H](OC(=O)c7ccccc7)[C@@H]5[C@@](OC(C)=O)([C@@H]([C@H](OC)[C@H]23)[C@@H]14)[C@@H](O)[C@@H]6OC [aconitine]	reducing a percentage of Aβ protein aggregation as compared to a control and/or reducing a percentage of tau protein accumulation as compared to a control			percentage of Aβ fibrillization compared to the control (Aβ1-42 protein; 10 (unit uncertain)): 82.0%; percentage of Aβ fibrillization compared to the control (Aβ1-42 protein; 20 (unit uncertain)): 74.8%
O=C(N[C@@H](Cc1ccccc1)C(=O)N[C@H](CO)Cc1ccccc1)c1ccccc1 [aurantiamide]		24.8578		cell survival ([1]; 10 micromolar): 71.5173%
COc1c(O)cc2c(c1O)[C@@H]1O[C@H](CO)[C@@H](O)[C@H](O)[C@H]1OC2=O [bergenin]	reducing a percentage of Aβ protein aggregation as compared to a control and/or reducing a percentage of tau protein accumulation as compared to a control			cell survival ([1]; 50 micromolar): 76.2308%; decrease of Aβ fibrillization (Aβ; 50 micromolar): 31.9532%
O=c1cc(-c2ccc(O)c(O)c2)oc2c([C@@H]3O[C@H](CO)[C@@H](O)[C@H](O)[C@H]3O)c(O)cc(O)c12 [orientin]		29.2843	77.8195	
O=c1cc(-c2ccc(O)cc2)oc2c([C@@H]3O[C@H](CO)[C@@H](O)[C@H](O)[C@H]3O)c(O)cc(O)c12 [vitexin]		28.8579	73.4208	
swatinine	reducing a percentage of Aβ protein aggregation as compared to a control and/or reducing a percentage of tau protein accumulation as compared to a control			
